Converted amounts (≈) assume the structure as drawn. Read-outs that look alike come from different tables or passages of the source.
Tested on: A. baumannii strain ATCC19606
Assay: Minimum inhibitory concentration (MIC) determination, microbroth dilution (CLSI)
Format: cell-based
Details: Acinetobacter baumannii, read-out: ATCC19606 MIC
Protocol: The in vitro antimicrobial activity of the compounds was determined through microbroth minimum inhibitory concentration (MIC) methodology performed according to the Clinical and Laboratory Standard Institute guidelines (CLSI—M07-A9 Jan. 2012. Methods for Dilution Antimicrobial Susceptibility Tests for Bacteria That Grow Aerobically; Approved Standard—Ninth Edition, Clinical and Laboratory Standards Institute, Wayne/PA, US and the CLSI—M100-S24 Jan. 2014. Performance Standards for Antimicrobial Susceptibility Testing; Approved Standard—Fourth Informational Supplement, Clinical and Laboratory Standards Institute, Wayne/PA, US).
The compound stock solution was freshly prepared at 10× the required top concentration for the MIC determination, i.e. at 1280 mg/L, by reconstitution of the dry compound in 50:50 water:DMSO.
Polystyrene non-treated 96 wells microtiter plates were used for preparing panel containing compound serial twofold diluted at two times the final testing concentration (e.g. range from 64 to 0.06 μg/ml) in cation adjusted Mueller Hinton broth medium (CAMHB).
Inoculum was prepared by the “direct colony suspension method”. Colonies of A. baumannii ATCC19606 or clinical isolates were suspended in saline solution and adjusted to 0.5 McFarland, diluted 100 times in CAMHB broth and 50 μl added to each well (final concentration of cells ˜5×10^(5) CFU/ml and Final volume/well of 100 μl). Microtiter plates were sealed and incubated at 35±2° C.
MICs values were read after 20 hours of incubation and recorded as the lowest concentration of the antimicrobial that inhibits more or equal to 80% of growth of the organism as detected by the unaided eye and using a microtiter plate optical density reader (OD 600 nm).
Tables 2, 3, 4 and 5 provide the minimum inhibitory concentration (MIC) in microgram per milliliter of the compounds of present invention obtained against the A. baumannii strain ATCC19606 (Tables 2, 3, 4 and 5).

[1] = A. baumannii ATCC19606, CAMHB, read after 20 hours, >=80% growth inhibition

SMILES	MIC [1]	MIC (ATCC19606, 20 h)
CC(C)[C@@H]1NCc2cccnc2Sc2c(Cl)cc(Cl)cc2CNC(=O)[C@H](Cc2c[nH]c3ccccc23)N(C)C(=O)[C@H](CCCCN)NC1=O [Example 95, (11S,14S,17S)-14-(4-Amino-butyl)-23,25-dichloro-17-(1H-indol-3-ylmethyl)-11-isopropyl-16-methyl-2-thia-4,10,13,16,19-pentaaza-tricyclo[19.4.0.0*3,8*]pentacosa-1(25),3,5,7,21,23-hexaene-12,15,18-trione]	8 µg/mL (≈ 11 µM)	–
CN1C(=O)[C@H](CCCCN)NC(=O)[C@H](C2CCNCC2)NCc2ccccc2Sc2ccccc2CNC(=O)[C@@H]1Cc1c[nH]c2ccccc12 [Example 3, (12S,15S,18S)-15-(4-Amino-butyl)-12-(1H-indol-3-ylmethyl)-13-methyl-18-piperidin-4-yl-2-thia-10,13,16,19-tetraaza-tricyclo[19.4.0.0*3,8*]pentacosa-1(21),3,5,7,22,24-hexaene-11,14,17-trione]	16 µg/mL (≈ 23 µM)	–
CN1C(=O)[C@H](CCCCN)NC(=O)[C@H](CCC(N)=O)NCc2cccnc2Sc2c(Cl)ccc(Cl)c2CNC(=O)[C@@H]1Cc1c[nH]c2ccccc12 [Example 121, 3-[(11S,14S,17S)-14-(4-Amino-butyl)-22,25-dichloro-17-(1H-indol-3-ylmethyl)-16-methyl-12,15,18-trioxo-2-thia-4,10,13,16,19-pentaaza-tricyclo[19.4.0.0*3,8*]pentacosa-1(25),3,5,7,21,23-hexaen-11-yl]-propionamide]	2 µg/mL (≈ 2.65 µM)	–
CN1C(=O)[C@H](CCCN)NC(=O)[C@H](CCCN)NCc2ccccc2Sc2ccccc2CNC(=O)[C@@H]1Cc1c[nH]c2ccccc12 [Example 2, (12S,15S,18S)— 15,18-Bis-(3-amino-propyl)-12-(1H-indol-3-ylmethyl)-13-methyl-2-thia-10,13,16,19-tetraaza-tricyclo[19.4.0.0*3,8*]pentacosa-1(21),3,5,7,22,24-hexaene-11,14,17-trione]	–	4 µg/mL (≈ 6.1 µM)
CN1C(=O)[C@H](CCCCN)NC(=O)[C@H](CCCN)NCc2ccccc2Sc2cc(Cl)ccc2CNC(=O)[C@@H]1Cc1c[nH]c2ccccc12 [Example 6, (12S,15S,18S)-15-(4-Amino-butyl)-18-(3-amino-propyl)-5-chloro-12-(1H-indol-3-ylmethyl)-13-methyl-2-thia-10,13,16,19-tetraaza-tricyclo[19.4.0.0*3,8*]pentacosa-1(21),3,5,7,22,24-hexaene-11,14,17-trione]	2 µg/mL (≈ 2.84 µM)	–
NCCCC[C@@H]1NC(=O)[C@H](CCCN)NCc2cccnc2Sc2c(Cl)ccc(Cl)c2CNC(=O)[C@H](Cc2c[nH]c3ccccc23)NC1=O [Example 82, (11S,14S,17S)-14-(4-Amino-butyl)-11-(3-amino-propyl)-22,25-dichloro-17-(1H-indol-3-ylmethyl)-2-thia-4,10,13,16,19-pentaaza-tricyclo[19.4.0.0*3,8*]pentacosa-1(25),3(8),4,6,21,23-hexaene-12,15,18-trione]	4 µg/mL (≈ 5.51 µM)	–
CN1C(=O)[C@H](CCCCN)NC(=O)[C@H](CCCN)NCc2ccccc2Sc2ccc(Cl)c(Cl)c2CNC(=O)[C@@H]1Cc1c[nH]c2ccccc12 [Example 21, (12S,15S,18S)-15-(4-Amino-butyl)-18-(3-amino-propyl)-6,7-dichloro-12-(1H-indol-3-ylmethyl)-13-methyl-2-thia-10,13,16,19-tetraaza-tricyclo[19.4.0.0*3,8*]pentacosa-1(25),3,5,7,21,23-hexaene-11,14,17-trione]	1 µg/mL (≈ 1.35 µM)	–
CN1C(=O)[C@H](CCCCN)NC(=O)[C@H](CCCN)NCc2cccnc2Sc2c(Cl)cc(-c3ccncc3)cc2CNC(=O)[C@@H]1Cc1c[nH]c2ccccc12 [Example 100, (11S,14S,17S)-14-(4-Amino-butyl)-11-(3-amino-propyl)-25-chloro-17-(1H-indol-3-ylmethyl)-16-methyl-23-pyridin-4-yl-2-thia-4,10,13,16,19-pentaaza-tricyclo[19.4.0.0*3,8*]pentacosa-1(25),3,5,7,21,23-hexaene-12,15,18-trione]	2 µg/mL (≈ 2.56 µM)	–

Second part, led by results:

MIC [1]	SMILES	MIC (ATCC19606, 20 h)
0.25 µg/mL (≈ 0.305 µM)	CN1C(=O)[C@H](CCCCN)NC(=O)[C@H](CCCN)NCc2cccnc2Sc2c(Cl)cc(-c3cc(F)nc(F)c3)cc2CNC(=O)[C@@H]1Cc1c[nH]c2ccccc12 [Example 209, (11S,14S,17S)-14-(4-Amino-butyl)-11-(3-amino-propyl)-25-chloro-23-(2,6-difluoro-pyridin-4-yl)-17-(1H-indol-3-ylmethyl)-16-methyl-2-thia-4,10,13,16,19-pentaaza-tricyclo[19.4.0.0*3,8*]pentacosa-1(21),3(8),4,6,22,24-hexaene-12,15,18-trione]	–
1 µg/mL (≈ 1.32 µM)	CN1C(=O)[C@H](CCCCN)NC(=O)[C@H](CNC(N)=O)NCc2cccnc2Sc2c(Cl)cc(Cl)cc2CNC(=O)[C@@H]1Cc1c[nH]c2ccccc12 [Example 180, [(11S,14S,17S)-14-(4-Amino-butyl)-23,25-dichloro-17-(1H-indol-3-ylmethyl)-16-methyl-12,15,18-trioxo-2-thia-4,10,13,16,19-pentaaza-tricyclo[19.4.0.0*3,8*]pentacosa-1(25),3(8),4,6,21,23-hexaen-11-ylmethyl]-urea]	–
0.12 µg/mL (≈ 0.15 µM)	CN1C(=O)[C@H](CCCCN)NC(=O)[C@H](CCCN)NCc2cccnc2Sc2c(Cl)ccc(-c3ccc(N)nc3)c2CNC(=O)[C@@H]1Cc1c[nH]c2ccccc12 [Example 228, (11S,14S,17S)-14-(4-Amino-butyl)-11-(3-amino-propyl)-22-(6-amino-pyridin-3-yl)-25-chloro-17-(1H-indol-3-ylmethyl)-16-methyl-2-thia-4,10,13,16,19-pentaaza-tricyclo[19.4.0.0*3,8*]pentacosa-1(21),3,5,7,22,24-hexaene-12,15,18-trione]	–
0.12 µg/mL (≈ 0.152 µM)	CN1C(=O)[C@H](CCCCN)NC(=O)[C@H](CCCN)NCc2cccnc2Sc2c(Cl)ccc(N3CCOCC3)c2CNC(=O)[C@@H]1Cc1c[nH]c2ccccc12 [Example 147, (11S,14S,17S)-14-(4-Amino-butyl)-11-(3-amino-propyl)-25-chloro-17-(1H-indol-3-ylmethyl)-16-methyl-22-morpholin-4-yl-2-thia-4,10,13,16,19-pentaaza-tricyclo[19.4.0.0*3,8*]pentacosa-1(25),3(8),4,6,21,23-hexaene-12,15,18-trione]	–
0.5 µg/mL (≈ 0.625 µM)	Cc1noc(C)c1-c1cc(Cl)c2c(c1)CNC(=O)[C@H](Cc1c[nH]c3ccccc13)N(C)C(=O)[C@H](CCCCN)NC(=O)[C@H](CCCN)NCc1cccnc1S2 [Example 186, (11S,14S,17S)-14-(4-Amino-butyl)-11-(3-amino-propyl)-25-chloro-23-(3,5-dimethyl-isoxazol-4-yl)-17-(1H-indol-3-ylmethyl)-16-methyl-2-thia-4,10,13,16,19-pentaaza-tricyclo[19.4.0.0*3,8*]pentacosa-1(25),3(8),4,6,21,23-hexaene-12,15,18-trione]	–
1 µg/mL (≈ 1.14 µM)	Cc1[nH]c2ccccc2c1C[C@H]1C(=O)NCc2cc(-c3cncc(S(C)(=O)=O)c3)cc(Cl)c2Sc2ncccc2CN[C@@H](CCCN)C(=O)N[C@@H](CCCCN)C(=O)N1C [Example 199, (11S,14S,17S)-14-(4-Amino-butyl)-11-(3-amino-propyl)-25-chloro-23-(5-methanesulfonyl-pyridin-3-yl)-16-methyl-17-(2-methyl-1H-indol-3-ylmethyl)-2-thia-4,10,13,16,19-pentaaza-tricyclo[19.4.0.0*3,8*]pentacosa-1(25),3(8),4,6,21,23-hexaene-12,15,18-trione]	–
1 µg/mL (≈ 1.25 µM)	CN1C(=O)[C@H](CCCCN)NC(=O)[C@H](CCCN)NCc2cccnc2Sc2c(Cl)cc(-c3ccnc(F)c3)cc2CNC(=O)[C@@H]1Cc1c[nH]c2ccccc12 [Example 177, (11S,14S,17S)-14-(4-Amino-butyl)-11-(3-amino-propyl)-25-chloro-23-(2-fluoro-pyridin-4-yl)-17-(1H-indol-3-ylmethyl)-16-methyl-2-thia-4,10,13,16,19-pentaaza-tricyclo[19.4.0.0*3,8*]pentacosa-1(25),3(8),4,6,21,23-hexaene-12,15,18-trione]	–
0.12 µg/mL (≈ 0.153 µM)	CN1C(=O)[C@H](CCCCN)NC(=O)[C@H](CCCN)NCc2cccnc2Sc2c(Cl)ccc(-c3cccnc3)c2CNC(=O)[C@@H]1Cc1c[nH]c2ccccc12 [Example 191, (11S,14S,17S)-14-(4-Amino-butyl)-11-(3-amino-propyl)-25-chloro-17-(1H-indol-3-ylmethyl)-16-methyl-22-pyridin-3-yl-2-thia-4,10,13,16,19-pentaaza-tricyclo[19.4.0.0*3,8*]pentacosa-1(25),3(8),4,6,21,23-hexaene-12,15,18-trione]	–
2 µg/mL (≈ 2.49 µM)	CN1C(=O)[C@H](CCCCN)NC(=O)[C@H](CCCN)NCc2cccnc2Sc2c(Cl)cc(N3CC4CC3CO4)cc2CNC(=O)[C@@H]1Cc1c[nH]c2ccccc12 (stereo partly drawn) [Example 187, (11S,14S,17S)-14-(4-Amino-butyl)-11-(3-amino-propyl)-25-chloro-17-(1H-indol-3-ylmethyl)-16-methyl-23-(2-oxa-5-aza-bicyclo[2.2.1]hept-5-yl)-2-thia-4,10,13,16,19-pentaaza-tricyclo[19.4.0.0*3,8*]pentacosa-1(25),3(8),4,6,21,23-hexaene-12,15,18-trione]	–
